Data reported in US8293729B2 (Boehringer Ingelheim International GmbH, priority 2009, dated 2012).

biological target: T1, human GPR119 receptor (Homo sapiens, UniProt Q8TDV5, S329A/T327A); experiment: cAMP assay (LANCE cAMP-384) in HEK293 cells stably expressing mutant human GPR119 receptor; type: cell-based; details: HEK293, 20 min; at 10 μM; printed in EC50 column of the 34th table; read-out: stimulation in % at 10 μM
T1 construct: N-terminal leader […]; expressed in transfected cells
T1 sequence (Q8TDV5 with tags, fused parts or gaps T327A/S329A): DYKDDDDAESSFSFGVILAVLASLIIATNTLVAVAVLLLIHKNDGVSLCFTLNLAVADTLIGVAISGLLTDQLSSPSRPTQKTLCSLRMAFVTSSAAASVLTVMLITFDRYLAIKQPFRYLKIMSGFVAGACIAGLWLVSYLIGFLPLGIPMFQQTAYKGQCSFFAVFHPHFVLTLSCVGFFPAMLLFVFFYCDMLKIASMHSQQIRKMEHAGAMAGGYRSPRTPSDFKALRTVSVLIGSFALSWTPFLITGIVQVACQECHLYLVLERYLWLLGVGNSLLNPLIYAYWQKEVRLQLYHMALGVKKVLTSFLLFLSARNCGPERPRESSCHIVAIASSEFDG
In short: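 Agonist EC50 came from nonlinear regression over 12 concentrations (30 μM–100 pM), with % stimulation at 10 μM where no EC50 was obtained. Cells: stable HEK293 with mutant human GPR119 (T327A/S329A), 20 min compound at 37° C; cAMP read by LANCE kit with standard curve.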

| SMILES | activation at 10 µM |
| --- | --- |
| CC(C)OC(=O)CN1CCC(ON=C2CCN(c3ccc(S(C)(=O)=O)cc3F)CC2)CC1 [Example 65-3] | 64% |

same assay, conditions: HEK293, 20 min; single concentration 10 μM; given where no EC50 value could be determined; read-out: % stimulation at 10 μM

| SMILES | activation at 10 µM |
| --- | --- |
| COc1cccc(-c2cc(F)c(N3CCC(=NOC4CCN(C(=O)OC(C)C)CC4)CC3)cc2F)n1 [Example 27-11] | 80% |

same assay, conditions: cAMP accumulation, HEK293 cells stably expressing mutant human GPR119; read-out: EC50

| SMILES | EC50 |
| --- | --- |
| CC(C)OC(=O)N1CCC(ON=C2CCN(c3ncc([N+](=O)[O-])s3)CC2)CC1 [Example 2-13] | 5110 nM |
| CC(C)OC(=O)N1CCC(ON=C2CCN(c3cc(F)c(C(=O)NCCCN)cc3F)CC2)CC1 [Example 31-3] | 542 nM |
| CC(C)OC(=O)N1CCC(ON=C2CCN(c3cc(F)c(C4SCCC[S+]4[O-])cc3F)CC2)CC1 (mixture of isomers) [Example 21-1, 4-{1-[2,5-Difluoro-4-(1-oxo-1 lambda*4*-[1,3]dithian-2-yl)-phenyl]-piperidin-4-ylideneaminooxy}-piperidine-1-carboxylic acid isopropyl ester] | 143 nM |
| CC(C)OC(=O)N1CCC(ON=C2CCN(c3nccc(C(F)(F)F)n3)CC2)CC1 [Example 2-66] | > 10000 nM |
| Cc1ccsc1-c1cc(F)c(N2CCC(=NOC3CCN(C(=O)OC(C)C)CC3)CC2)cc1F [Example 27-24] | 329 nM |
| CC(C)OC(=O)N1CCC(ON=C2CCN(c3cc(F)c(CNS(C)(=O)=O)cc3F)CC2)CC1 [Example 16-3] | 51 nM |
| COC(=O)c1nc(Cl)c(N2CCC(=NOC3CCN(C(=O)OC(C)C)CC3)CC2)nc1N [Example 2-34] | > 10000 nM |
| CC(C)OC(=O)N1CCC(ON=C2CCN(c3cc(F)c(NC(N)=O)cc3F)CC2)CC1 [Example 37-1, 4-[1-(2,5-Difluoro-4-ureido-phenyl)-piperidin-4-ylideneaminooxy]-piperidine-1-carboxylic acid isopropyl ester] | 71 nM |
| CC(C)OC(=O)N1CCC(ON=C2CCN(c3ccc(I)cn3)CC2)CC1 [Example 2-12] | 2360 nM |
| CC(C)OC(=O)N1CCC(ON=C2CCN(c3cc(F)c(COC(=O)[C@@H](NC(=O)OC(C)(C)C)C(C)C)cc3F)CC2)CC1 [Example 42-1, 4-{1-[4-((S)-2-tert-Butoxycarbonylamino-3-methyl-butyryloxymethyl)-2,5-difluoro-phenyl]-piperidin-4-ylideneaminooxy}-piperidine-1-carboxylic acid isopropyl ester] | 928 nM |
| CC(C)OC(=O)N1CCC(ON=C2CCN(c3cc(F)c(CNCCC(=O)O)cc3F)CC2)CC1 [Example 7-1, 4-(1-{4-[(2-Carboxy-ethylamino)-methyl]-2,5-difluoro-phenyl}-piperidin-4-ylideneaminooxy)-piperidine-1-carboxylic acid isopropyl ester] | 1150 nM |
| CC(=O)NCc1cc(F)c(N2CCC(=NOC3CCN(C(=O)OC(C)C)CC3)CC2)cc1F [Example 16-2] | 141 nM |
| Cc1cccc(N2CCC(=NOC3CCN(C(=O)OC(C)C)CC3)CC2)n1 [Example 2-8] | > 10000 nM |
| CC(C)OC(=O)N1CCC(ON=C2CCN(c3cc(F)c(-n4cccc4)cc3F)CC2)CC1 [Example 22-2] | 767 nM |
| CC(C)OC(=O)N1CCC(ON=C2CCN(c3cc(F)c(CNC=O)cc3F)CC2)CC1 [Example 16-8] | 120 nM |
| CC(C)OC(=O)N1CCC(ON=C2CCN(c3cc(F)c(N4CCCC4=O)cc3F)CC2)CC1 [Example 22-7] | 157 nM |
| CC(C)OC(=O)N1CCC(ON=C2CCN(c3nc(C=O)c(Cl)s3)CC2)CC1 [Example 2-25] | > 10000 nM |
| Cc1nc(N2CCC(=NOC3CCN(C(=O)OC(C)C)CC3)CC2)c(F)cc1CO [Example 55-1, 4-(3′-Fluoro-5′-hydroxymethyl-6′-methyl-2,3,5,6-tetrahydro-[1,2′]bipyridinyl-4-ylideneaminooxy)-piperidine-1-carboxylic acid isopropyl ester] | 206 nM |
| CC(C)OC(=O)N1CCC(ON=C2CCN(c3cc(F)c(CO)cc3F)CC2)CC1 [Example 10-1, 4-[1-(2,5-Difluoro-4-hydroxymethyl-phenyl)-piperidin-4-ylideneaminooxy]-piperidine-1-carboxylic acid isopropyl ester] | 9 nM |
| CC(C)OC(=O)N1CCC(ON=C2CCN(c3cc(F)c(N(S(C)(=O)=O)S(C)(=O)=O)cc3F)CC2)CC1 [Example 2-63] | > 10000 nM |

same assay, conditions: the 15th table; read-out: EC50

| SMILES | EC50 |
| --- | --- |
| COCCNC(=O)c1cc(F)c(N2CCC(=NOC3CCN(C(=O)OC(C)C)CC3)CC2)cc1F [Example 29-12] | 12 nM |

same assay, conditions: the 19th table; unit inferred; read-out: EC 50

| SMILES | EC50 |
| --- | --- |
| CCc1cnc(N2CCC(ON=C3CCN(c4cc(F)c(C(=O)NCC5CNCCO5)cc4F)CC3)CC2)nc1 (stereo not drawn) [Example 29-113] | 26 nM |

same assay, conditions: the 28th table; read-out: EC50

| SMILES | EC50 |
| --- | --- |
| CC(C)OC(=O)N1CCC(ON=C2CCN(c3ncc(-n4cncn4)cc3F)CC2)CC1 [Example 51-1, 4-(3′-Fluoro-5′-[1,2,4]triazol-1-yl-2,3,5,6-tetrahydro-[1,2]bipyridinyl-4-ylideneaminooxy)-piperidine-1-carboxylic acid isopropyl ester] | 327 nM |

same assay, conditions: the 29th table; read-out: EC50

| SMILES | EC50 |
| --- | --- |
| CC(C)OC(=O)N1CCC(ON=C2CCN(c3ccc(CO)c(F)c3)CC2)CC1 [Example 52-1, 4-[1-(3-Fluoro-4-hydroxymethyl-phenyl)-piperidin-4-ylideneaminooxy]-piperidine-1-carboxylic acid isopropyl ester] | > 10000 nM |

same assay, conditions: the 32nd table; read-out: EC50

| SMILES | EC50 |
| --- | --- |
| CS(=O)(=O)c1ccc(N2CCC(=NOC3CCN(c4ccc(Cl)cn4)CC3)CC2)c(F)c1 [Example 63-24] | 977 nM |

same assay, conditions: the 33rd table; read-out: EC50

| SMILES | EC50 |
| --- | --- |
| COC(=O)[C@@H](C)COC(=O)N1CCC(ON=C2CCN(c3ccc(S(C)(=O)=O)cc3F)CC2)CC1 [Example 64-23] | 928 nM |
| CCOCCOC(=O)N1CCC(ON=C2CCN(c3ccc(S(C)(=O)=O)cc3F)CC2)CC1 [Example 64-10] | 1280 nM |
| CS(=O)(=O)c1ccc(N2CCC(=NOC3CCN(C(=O)OCc4ccccn4)CC3)CC2)c(F)c1 [Example 64-17] | 1070 nM |
| CS(=O)(=O)c1ccc(N2CCC(=NOC3CCN(C(=O)O[C@H]4CNC(=O)C4)CC3)CC2)c(F)c1 [Example 64-11] | > 10000 nM |
| CS(=O)(=O)c1ccc(N2CCC(=NOC3CCN(C(=O)OC4CNC4)CC3)CC2)c(F)c1 [Example 64-33] | > 10000 nM |
| CC(C)[C@@H](N)COC(=O)N1CCC(ON=C2CCN(c3ccc(S(C)(=O)=O)cc3F)CC2)CC1 [Example 64-44] | > 10000 nM |
| CS(=O)(=O)c1ccc(N2CCC(=NOC3CCN(C(=O)OCCn4cccc4)CC3)CC2)c(F)c1 [Example 64-18] | 461 nM |

same assay, conditions: the 34th table, compounds 65-1 to 65-24; read-out: EC50

| SMILES | EC50 |
| --- | --- |
| CC(C)(C)COC(=O)N1CCC(ON=C2CCN(c3ccc(S(C)(=O)=O)cc3F)CC2)CC1 [Example 65-7] | 57 nM |
| CS(=O)(=O)c1ccc(N2CCC(=NOC3CCN(CC(=O)Nc4ccccc4)CC3)CC2)c(F)c1 [Example 65-2] | > 10000 nM |

same assay, conditions: the 36th table, compounds 66-1 to 66-51; read-out: EC50

| SMILES | EC50 |
| --- | --- |
| CS(=O)(=O)c1ccc(N2CCC(=NOC3CCN(Cc4ncc[nH]4)CC3)CC2)c(F)c1 [Example 66-2] | > 10000 nM |
| COc1ccc(CN2CCC(ON=C3CCN(c4ccc(S(C)(=O)=O)cc4F)CC3)CC2)cc1 [Example 66-45] | 6000 nM |
| CS(=O)(=O)c1ccc(N2CCC(=NOC3CCN(Cc4ccncc4)CC3)CC2)c(F)c1 [Example 66-4] | > 10000 nM |
| Cc1ccc(CN2CCC(ON=C3CCN(c4ccc(S(C)(=O)=O)cc4F)CC3)CC2)c(F)c1 [Example 66-47] | 909 nM |

same assay, conditions: the 37th table, compounds 66-52 to 66-64; read-out: EC50

| SMILES | EC50 |
| --- | --- |
| CCc1ccc([C@@H](C)N2CCC(ON=C3CCN(c4cc(F)c(S(C)(=O)=O)cc4F)CC3)CC2)cc1 [Example 66-64] | > 10000 nM |
| CCc1ccc(C(C)N2CCC(ON=C3CCN(c4cc(F)c(S(C)(=O)=O)cc4F)CC3)CC2)cc1 (stereo not drawn) [Example 66-58] | 72 nM |
| CCCc1ccc(CN2CCC(ON=C3CCN(c4cc(F)c(S(C)(=O)=O)cc4F)CC3)CC2)c(F)c1 [Example 66-59] | 53 nM |

same assay, conditions: the 38th table, compounds 66-65 to 66-72; read-out: EC50

| SMILES | EC50 |
| --- | --- |
| CNC(=O)c1cc(F)c(N2CCC(=NOC3CCN(Cc4ccc(-c5ccccn5)cc4)CC3)CC2)cc1F [Example 66-65] | 792 nM |
| CNC(=O)c1cc(F)c(N2CCC(=NOC3CCN(Cc4ccc(Cl)cc4)CC3)CC2)cc1F [Example 66-68] | 365 nM |

same assay, conditions: the 43rd table, compounds 75-1 to 75-38; read-out: EC50

| SMILES | EC50 |
| --- | --- |
| CC(C)OC(=O)N1CCC(ON=C2CCN(c3cc(F)c(CC(=O)NCC4CCN(C)C4)cc3F)CC2)CC1 (stereo not drawn) [Example 75-33] | 128 nM |
| CC(C)OC(=O)N1CCC(ON=C2CCN(c3cc(F)c(CC(=O)N4CCC[C@@H]4CN4CCCC4)cc3F)CC2)CC1 [Example 75-28] | 246 nM |
| CC(C)OC(=O)N1CCC(ON=C2CCN(c3cc(F)c(CC(=O)N4CCC[C@H](N)C4)cc3F)CC2)CC1 [Example 75-13] | 116 nM |

same assay, conditions: the 44th table, compounds 77-1 to 77-14; read-out: EC50

| SMILES | EC50 |
| --- | --- |
| CCc1cnc(N2CCC(ON=C3CCN(c4cc(F)c(CC(=O)N5CC[C@H](N(C)C)C5)cc4F)CC3)CC2)nc1 [Example 77-5] | 6 nM |
| CCc1cnc(N2CCC(ON=C3CCN(c4cc(F)c(CC(=O)N5CCC[C@@H](N)C5)cc4F)CC3)CC2)nc1 [Example 77-8] | 30 nM |
| CCc1cnc(N2CCC(ON=C3CCN(c4cc(F)c(CC(=O)NC5CCNCC5)cc4F)CC3)CC2)nc1 [Example 77-10] | 20 nM |
